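Method: 48-hour compound exposure of cells in 96-well plates, five concentrations, linear interpolation of endpoints. GI50 = concentration required for 50% inhibition of growth. TGI: concentration producing complete growth inhibition.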
Legend:
Test in all cases: growth of human tumour cells (NCI), 48 h
786-0 renal = test system: 786-0 renal
A498 renal = test system: A498 renal
A549 NSCLC = test system: A549 NSCLC
ACHN renal = test system: ACHN renal
BT-549 breast = test system: BT-549 breast
CAKI-1 renal = test system: CAKI-1 renal
CCRF-CEM leukemia = test system: CCRF-CEM leukemia
COLO 205 colon = test system: COLO 205 colon
DU-145 prostate = test system: DU-145 prostate
HCC-2998 colon = test system: HCC-2998 colon
HCT-116 colon = test system: HCT-116 colon
HCT-15 colon = test system: HCT-15 colon
HL-60(TB) leukemia = test system: HL-60(TB) leukemia
HOP-62 NSCLC = test system: HOP-62 NSCLC
HOP-92 NSCLC = test system: HOP-92 NSCLC
HS 578T breast = test system: HS 578T breast
HT29 colon = test system: HT29 colon
IGROV1 ovarian = test system: IGROV1 ovarian
K-562 leukemia = test system: K-562 leukemia
KM12 colon = test system: KM12 colon
LOX IMVI melanoma = test system: LOX IMVI melanoma
M14 melanoma = test system: M14 melanoma
MALME-3M melanoma = test system: MALME-3M melanoma
MCF7 breast = test system: MCF7 breast
MDA-MB-231 breast = test system: MDA-MB-231 breast
MDA-MB-435 = test system: MDA-MB-435
MOLT-4 leukemia = test system: MOLT-4 leukemia
NCI-H226 lung = test system: NCI-H226 lung
NCI-H23 lung = test system: NCI-H23 lung
NCI-H460 lung = test system: NCI-H460 lung
NCI-H522 lung = test system: NCI-H522 lung
NCI/ADR-RES ovarian = test system: NCI/ADR-RES ovarian
OVCAR-3 ovarian = test system: OVCAR-3 ovarian
OVCAR-4 ovarian = test system: OVCAR-4 ovarian
OVCAR-5 ovarian = test system: OVCAR-5 ovarian
OVCAR-8 ovarian = test system: OVCAR-8 ovarian
PC-3 prostate = test system: PC-3 prostate
RPMI-8226 leukemia = test system: RPMI-8226 leukemia
RXF 393 renal = test system: RXF 393 renal
SF-268 CNS = test system: SF-268 CNS
SF-295 CNS = test system: SF-295 CNS
SF-539 CNS = test system: SF-539 CNS
SK-MEL-2 melanoma = test system: SK-MEL-2 melanoma
SK-MEL-28 melanoma = test system: SK-MEL-28 melanoma
SK-MEL-5 melanoma = test system: SK-MEL-5 melanoma
SK-OV-3 ovarian = test system: SK-OV-3 ovarian
SN12C renal = test system: SN12C renal
SNB-19 CNS = test system: SNB-19 CNS
SNB-75 CNS = test system: SNB-75 CNS
SR leukemia = test system: SR leukemia
SW-620 colon = test system: SW-620 colon
T-47D breast = test system: T-47D breast
TK-10 renal = test system: TK-10 renal
U251 CNS = test system: U251 CNS
UACC-257 melanoma = test system: UACC-257 melanoma
UACC-62 melanoma = test system: UACC-62 melanoma
UO-31 renal = test system: UO-31 renal

## COc1ccc(-c2nc3sc(-c4cc(OC)c(OC)c(OC)c4)nn3c2/C=C2/C(=O)Nc3ccc(F)cc32)cc1
786-0 renal
  GI50: 16 µM
  TGI: 32.7 µM
A498 renal
  GI50: 12.2 µM
  TGI: 30.6 µM
A549 NSCLC
  GI50: 2.13 µM
  TGI: 5.26 µM
ACHN renal
  GI50: 3.29 µM
  TGI: 15.3 µM
BT-549 breast
  GI50: 14.9 µM
  TGI: 74.6 µM
CAKI-1 renal
  GI50: 4.48 µM
  TGI: 20 µM
CCRF-CEM leukemia
  GI50: 5.49 µM
  TGI: > 100 µM
COLO 205 colon
  GI50: 1.61 µM
  TGI: 4.13 µM
DU-145 prostate
  GI50: 1.87 µM
  TGI: 4.53 µM
HCC-2998 colon
  GI50: 5.25 µM
  TGI: 22 µM
HCT-116 colon
  GI50: 14.2 µM
  TGI: 40.5 µM
HCT-15 colon
  GI50: 2.5 µM
  TGI: > 100 µM
HL-60(TB) leukemia
  GI50: 2.17 µM
  TGI: 70.3 µM
HOP-62 NSCLC
  GI50: 1.94 µM
  TGI: 4.74 µM
HOP-92 NSCLC
  GI50: 2.02 µM
  TGI: 9.48 µM
HS 578T breast
  GI50: 16.2 µM
  TGI: > 100 µM
HT29 colon
  GI50: 2.18 µM
  TGI: 4.68 µM
IGROV1 ovarian
  GI50: 3.39 µM
  TGI: 12.7 µM
K-562 leukemia
  GI50: 13.1 µM
  TGI: > 100 µM
KM12 colon
  GI50: 4.04 µM
  TGI: 15.7 µM
LOX IMVI melanoma
  GI50: 6.88 µM
  TGI: 37.6 µM
M14 melanoma
  GI50: 5.51 µM
  TGI: 28.1 µM
MALME-3M melanoma
  GI50: 9.15 µM
  TGI: 29.9 µM
MCF7 breast
  GI50: 1.66 µM
  TGI: 6.32 µM
MDA-MB-231 breast
  GI50: 5.25 µM
  TGI: 20.7 µM
MDA-MB-435
  GI50: 3.39 µM
  TGI: 14 µM
MOLT-4 leukemia
  GI50: 4.54 µM
  TGI: > 100 µM
NCI-H226 lung
  GI50: 16.8 µM
  TGI: 36.7 µM
NCI-H23 lung
  GI50: 4.25 µM
  TGI: 21.5 µM
NCI-H460 lung
  GI50: 3.42 µM
  TGI: 15.3 µM
NCI-H522 lung
  GI50: 5.44 µM
  TGI: 18 µM
NCI/ADR-RES ovarian
  GI50: 21.9 µM
  TGI: > 100 µM
OVCAR-3 ovarian
  GI50: 2.32 µM
  TGI: 5.27 µM
OVCAR-4 ovarian
  GI50: 1.77 µM
  TGI: 4.51 µM
OVCAR-5 ovarian
  GI50: 6.14 µM
  TGI: 21.7 µM
OVCAR-8 ovarian
  GI50: 5.34 µM
  TGI: > 100 µM
PC-3 prostate
  GI50: 24.7 µM
  TGI: 65.3 µM
RPMI-8226 leukemia
  GI50: 11.3 µM
  TGI: 64.6 µM
RXF 393 renal
  GI50: 3.96 µM
  TGI: 18.7 µM
SF-268 CNS
  GI50: 4.4 µM
  TGI: 33.1 µM
SF-295 CNS
  GI50: 3 µM
  TGI: 10.8 µM
SF-539 CNS
  GI50: 56 µM
  TGI: > 100 µM
SK-MEL-2 melanoma
  GI50: 5.58 µM
  TGI: 17.6 µM
SK-MEL-28 melanoma
  GI50: 9.58 µM
  TGI: 27.8 µM
SK-MEL-5 melanoma
  GI50: 1.64 µM
  TGI: 3.65 µM
SK-OV-3 ovarian
  GI50: 2.84 µM
  TGI: 7.34 µM
SN12C renal
  GI50: 14.2 µM
  TGI: 40.1 µM
SNB-19 CNS
  GI50: 15.1 µM
  TGI: 44 µM
SNB-75 CNS
  GI50: 10.3 µM
  TGI: 22.6 µM
SR leukemia
  GI50: 23.5 µM
  TGI: > 100 µM
SW-620 colon
  GI50: 3.22 µM
  TGI: 14.8 µM
T-47D breast
  GI50: 2.01 µM
  TGI: 5.16 µM
TK-10 renal
  GI50: 2.26 µM
  TGI: 4.23 µM
U251 CNS
  GI50: 1.77 µM
  TGI: 3.39 µM
UACC-257 melanoma
  GI50: 3.35 µM
  TGI: 11.3 µM
UACC-62 melanoma
  GI50: 13.3 µM
  TGI: 33.4 µM
UO-31 renal
  GI50: 15 µM
  TGI: 29.7 µM

Source: PubChem BioAssay (NCI)
